Assay results reported in patent publication US8980226B2, “Aerosolized fosfomycin/aminoglycoside combination for the treatment of bacterial respiratory infections” (Gilead Sciences, Inc., priority 2004, dated 2015).

The compounds below were run on P. aeruginosa ATCC 27853 (assay: MBC/MIC, broth microdilution). Settings: aminoglycoside alone.
Assay type: cell-based
Experimental: “Minimal bactericidal concentration (MBC)” means the lowest concentration of antibiotic that results in ≧3 Log10 of bacterial killing.
The MICs of amikacin, arbekacin, dibekacin, gentamicin, kanamycin, netilimicin, neomycin, streptomycin, and tobramycin alone were determined for P. aeruginosa ATCC 27853 by the broth-microdilution method according to NCCLS standards (NCCLS, 2003). E. coli ATCC 25922 and S. aureus ATCC 29213 were used as quality control stains. Bacterial strains were streaked onto blood agar plates, and incubated at 35° C. for 18 hours. Two to three bacterial colonies from the overnight cultures were inoculated into 3 mL of sterile normal saline, vortexed briefly, and adjusted to a 0.5 McFarland standard (NCCLS, 2003). The bacterial suspension was diluted 1:100 in cation-adjusted Mueller-Hinton broth (hereafter referred to as CAMHB). Fifty microliters of bacterial inoculum (approximately 2×10^5 CFU/mL) was pipeted into individual wells of 96-well plates containing 50 μl of CAMHB (Remel, Lenexa, Kanas) supplemented with 2-fold dilutions of antibiotics ranging in concentration from 0.125 μg/mL to 128 μg/mL. The MIC was defined as the lowest concentration of antibiotic (s) that prevented visible growth after incubation at 35° C. for 18-24 hours.
The MBCs of fosfomycin, amikacin, arbekacin, dibikacin, gentamicin, kanamycin B, netilimicin, neomycin, streptomycin, or tobramycin alone for P. aeruginosa ATCC 27853, E. coli ATCC 25922, and S. aureus ATCC 29213 were determined by the broth microdilution method according to NCCLS standards (NCCLS, 1999). Bacterial strains were streaked onto blood agar plates and incubated at 35° C. for 18-24 hours. Two to three bacterial colonies from the overnight cultures were inoculated into 3 mL of sterile normal saline, vortexed briefly, and adjusted to a 0.5 McFarland standard (NCCLS, 2003). Fifty microliters of bacterial inoculum (approximately 2×10^5 CFU/mL) was pipeted into individual wells of 96-well plates containing 50 μl of CAMHB (Remel, Lenexa, Kanas) supplemented with 2-fold dilutions of antibiotics ranging in concentration from 0.125 μg/mL to 128 μg/mL. Plates were incubated at 35° C. for 18-24 hours and MIC determined as described in Example 5, Method C. The contents of wells showing no growth (MIC and above) were mixed with a pipetor and duplicate 10 μl samples spread onto blood agar plates. Culture plates were incubated at 35° C. for 18-24 hours and the number of bacterial colonies on each plate enumerated manually. Rejection values were determined by NCCLS methods which considers the final inoculum size, single or double sampling, pipetting error, and the Poisson distribution of sample responses (NCCLS, 1999). […] The MBC was defined as the ≧3 Log10 decrease in CFU/mL of the original inoculum as described by NCCLS standards (NCCLS, 1999). The MBC/MIC ratios were calculated by dividing the MBC by the MIC.
`NCC[C@H](O)C(=O)N[C@@H]1C[C@H](N)[C@@H](O[C@H]2O[C@H](CN)[C@@H](O)[C@H](O)[C@H]2O)[C@H](O)[C@H]1O[C@H]1O[C@H](CO)[C@@H](O)[C@H](N)[C@H]1O` [Amikacin, amikacin] was tested, and the “MBC/MIC Aminoglycoside” value was 2.
`NCC[C@H](O)C(=O)N[C@@H]1C[C@H](N)[C@@H](O[C@H]2O[C@H](CN)CC[C@H]2N)[C@H](O)[C@H]1O[C@H]1O[C@H](CO)[C@@H](O)[C@H](N)[C@H]1O` [Arbekacin, arbekacin] was tested, and the “MBC/MIC Aminoglycoside” value was 1.
With `NC[C@@H]1CC[C@@H](N)[C@@H](O[C@H]2[C@H](O)[C@@H](O[C@H]3O[C@H](CO)[C@@H](O)[C@H](N)[C@H]3O)[C@H](N)C[C@@H]2N)O1` [Dibekacin, dibekacin] the “MBC/MIC Aminoglycoside” value was 1.
With `CCN[C@@H]1C[C@H](N)[C@@H](O[C@H]2OC(CN)=CC[C@H]2N)[C@H](O)[C@H]1O[C@H]1OC[C@](C)(O)[C@H](NC)[C@H]1O` [Netilimicin, netilmicin] the “MBC/MIC Aminoglycoside” value was 1.
In the case of `[H]/N=C(/N)N[C@H]1[C@H](O)[C@@H](O)[C@H](O[C@@H]2O[C@@H](C)[C@](O)(C=O)[C@H]2O[C@@H]2O[C@@H](CO)[C@H](O)[C@@H](O)[C@@H]2NC)[C@@H](N/C(N)=N\[H])[C@@H]1O` [Streptomycin, streptomycin], the “MBC/MIC Aminoglycoside” value was 4.
With gentamicin the “MBC/MIC Aminoglycoside” value was 2.
neomycin was tested, and the “MBC/MIC Aminoglycoside” value was 2.
